Assay results taken from ChEMBL document CHEMBL4219252, “Synthesis, antimycobacterial activity and influence on mycobacterial InhA and PknB of 12-membered cyclodepsipeptides” (Bioorg Med Chem, 2018).
≈ marks a conversion by molar mass, not a printed value.

What was measured:
Format in all cases: functional, variant bovis BCG
[1] = test system: Mycobacterium tuberculosis; assay: Antimycobacterial activity against Mycobacterium bovis BCG harboring pATB45::inhA after 48 hrs by resazurin microtiter assay
[2] = test system: Mycobacterium tuberculosis; assay: Antimycobacterial activity against wild type Mycobacterium bovis BCG harboring pATB45 after 48 hrs by resazurin microtiter assay
[3] = test system: Mycobacterium tuberculosis; assay: Ratio of MIC for Mycobacterium bovis BCG harboring pATB45::inhA to MIC for Mycobacterium bovis BCG harboring pATB45
[4] = Mycobacterium tuberculosis, variant bovis BCG, 48 h, read-out: MIC

Row | SMILES | MIC [1, 4] | MIC [2, 4] | Ratio [3] | MIC [1] | MIC [2]
1 | C[C@H]1OC(=O)CCC(Cc2ccccc2)NC(=O)[C@@H](NC(=O)c2ncccc2O)[C@@H](C)OC1=O (some centres not stated) | 62.5 µM (≈ 29.3 µg/mL) | 62.5 µM (≈ 29.3 µg/mL) | 1 | – | –
2 | C[C@H]1OC(=O)COC(=O)CCC(Cc2ccccc2)NC(=O)[C@H]1NC(=O)OC(C)(C)C (stereo in doubt; form 1) | – | – | 2 | 125 µM (≈ 54.3 µg/mL) | 62.5 µM (≈ 27.2 µg/mL)
3 | C[C@H]1OC(=O)COC(=O)CCC(Cc2ccccc2)NC(=O)[C@H]1NC(=O)OC(C)(C)C (stereo in doubt; form 2) | – | – | 1 | 7.8 µM (≈ 3.39 µg/mL) | 7.8 µM (≈ 3.39 µg/mL)
4 | NNC(=O)c1ccncc1 [ISONIAZID] | 12.5 µM (≈ 1.71 µg/mL) | 0.8 µM (≈ 0.11 µg/mL) | 15.6 | – | –
